Data from publication PMC11822212, “High-throughput screening identifies Aurora kinase B as a critical therapeutic target for Merkel cell carcinoma” (Nature Communications, 2025).
Several values for one entry are separate records, joined by “and”; a condition that tells them apart may be missing. Equal entries are not always repeated. Where two headings read alike, the source gives them in different places.

Legend:
MCC13 cells (VN-MCC) = experiment: qHTS cell viability (CellTiter-Glo, 72 h; primary and follow-up small molecule screen); assay type: cell-based, human
MCC26 cells (VN-MCC) = experiment: as above; assay type: cell-based, human
UISO cells (VN-MCC) = experiment: as above; assay type: cell-based, human
WAGA cells (VP-MCC) = experiment: as above; assay type: cell-based, human
MKL-1 cells (VP-MCC) = experiment: as above; assay type: cell-based, human
MKL-2 cells (VP-MCC) = experiment: as above; assay type: cell-based, human
HACAT cells = experiment: qHTS cell viability (CellTiter-Glo, 72 h; primary screen), control cell line; assay type: cell-based, human
HEK293T cells = experiment: as above; assay type: cell-based, human
NIH-3T3 cells = experiment: as above; assay type: cell-based, mouse
CRL-7250 cells = experiment: as above; assay type: cell-based
[1] = tested on: MCC cell lines (WAGA, MKL-1, MKL-2, MCC13, MCC26, UISO); experiment: qHTS cell viability, all six MCC cell lines as a group (mean AUC, MCC.avg); assay type: cell-based, human
[2] = tested on: VP-MCC cell lines (WAGA, MKL-1, MKL-2); experiment: qHTS cell viability, VP-MCC cell lines as a group (mean AUC, VP.MCC.avg); assay type: cell-based, human
[3] = tested on: VN-MCC cell lines (MCC13, MCC26, UISO); experiment: qHTS cell viability, VN-MCC cell lines as a group (mean AUC, VN.MCC.avg); assay type: cell-based, human
[4] = tested on: control cell lines (HACAT, HEK293T, CRL-7250, NIH-3T3); experiment: qHTS cell viability, control cell lines as a group (mean AUC, Control.avg); assay type: cell-based
[5] = tested on: six MCC cell lines and four control cell lines; experiment: qHTS cell viability, all 10 cell lines screened; assay type: cell-based
[6] = MIPE library, 11-point DRC, sheet S2E
[7] = MIPE library, 11-point DRC, control cell line, sheet S2E

CCC(=O)OC1(c2ccccc2)CCN(C)CC1.Cl
MCC13_AUC (MCC13 cells (VN-MCC)): 464.627 | MCC26_AUC (MCC26 cells (VN-MCC)): 456.799 | UISO_AUC (UISO cells (VN-MCC)): 451.795 | WAGA_AUC (WAGA cells (VP-MCC)): 438.281 | MKL1_AUC (MKL-1 cells (VP-MCC)): 398.305 | MKL2_AUC (MKL-2 cells (VP-MCC)): 404.215 | HACAT_AUC (HACAT cells): 483.91 | HEK293T_AUC (HEK293T cells): 479.823 | NIH3T3_AUC (NIH-3T3 cells): 479.714 | CRL7250_AUC (CRL-7250 cells): 443.177 | MCC_Avg_AUC [1]: 435.67 | Control-VP-MCC [2]: 58.056 | VP-MCC_Avg_AUC [2]: 413.6 | Control-VN-MCC [3]: 13.9158 | VN-MCC_Avg_AUC [3]: 457.741 | Control_Avg_AUC [4]: 471.656 | Control-MCC [5]: 35.9859

CNC(C)Cc1ccc2c(c1)OCO2.Cl (centres unmarked)
MCC13_AUC (MCC13 cells (VN-MCC)): 451.345 | MCC26_AUC (MCC26 cells (VN-MCC)): 414.843 | UISO_AUC (UISO cells (VN-MCC)): 441.906 | WAGA_AUC (WAGA cells (VP-MCC)): 422.784 | MKL1_AUC (MKL-1 cells (VP-MCC)): 436.372 | MKL2_AUC (MKL-2 cells (VP-MCC)): 446.935 | HACAT_AUC (HACAT cells): 490.316 | HEK293T_AUC (HEK293T cells): 483.458 | NIH3T3_AUC (NIH-3T3 cells): 493.81 | CRL7250_AUC (CRL-7250 cells): 491.585 | MCC_Avg_AUC [1]: 435.698 | Control-VP-MCC [2]: 54.4283 | VP-MCC_Avg_AUC [2]: 435.364 | Control-VN-MCC [3]: 53.7607 | VN-MCC_Avg_AUC [3]: 436.031 | Control_Avg_AUC [4]: 489.792 | Control-MCC [5]: 54.0945

CC(=O)OC1(c2ccccc2)CCN(CCc2ccccc2)CC1
MCC13_AUC (MCC13 cells (VN-MCC)): 419.397 | MCC26_AUC (MCC26 cells (VN-MCC)): 420.097 | UISO_AUC (UISO cells (VN-MCC)): 389.875 | WAGA_AUC (WAGA cells (VP-MCC)): 388.929 | MKL1_AUC (MKL-1 cells (VP-MCC)): 375.288 | MKL2_AUC (MKL-2 cells (VP-MCC)): 382.375 | HACAT_AUC (HACAT cells): 477.567 | HEK293T_AUC (HEK293T cells): 449.554 | NIH3T3_AUC (NIH-3T3 cells): 473.448 | CRL7250_AUC (CRL-7250 cells): 457.662 | MCC_Avg_AUC [1]: 395.993 and 395.994 | Control-VP-MCC [2]: 82.3602 | VP-MCC_Avg_AUC [2]: 382.197 | Control-VN-MCC [3]: 54.768 | VN-MCC_Avg_AUC [3]: 409.79 | Control_Avg_AUC [4]: 464.558 | Control-MCC [5]: 68.5641

COc1ccc(C(=O)CC(=O)c2ccc(C(C)(C)C)cc2)cc1
MCC13_AUC (MCC13 cells (VN-MCC); [6]): 495.434 | MCC13_AUC (MCC13 cells (VN-MCC); area under the dose-response curve, MCC13 cells, AUC<450 = reduced viability): 482.294 | MCC26_AUC (MCC26 cells (VN-MCC); [6]): 485.026 | MCC26_AUC (MCC26 cells (VN-MCC); area under the dose-response curve, MCC26 cells; AUC<450 = reduced viability): 481.864 | UISO_AUC (UISO cells (VN-MCC); [6]): 429.371 | UISO_AUC (UISO cells (VN-MCC); area under the dose-response curve, UISO cells, AUC<450 = reduced viability): 482.124 | WAGA_AUC (WAGA cells (VP-MCC); [6]): 305.979 | WAGA_AUC (WAGA cells (VP-MCC); area under the dose-response curve, WAGA cells, AUC<450 = reduced viability): 381.481 | MKL1_AUC (MKL-1 cells (VP-MCC); [6]): 339.212 | MKL1_AUC (MKL-1 cells (VP-MCC); area under the dose-response curve, MKL-1 cells, AUC<450 = reduced viability): 411.648 | MKL2_AUC (MKL-2 cells (VP-MCC); [6]): 314.76 | MKL2_AUC (MKL-2 cells (VP-MCC); area under the dose-response curve, MKL-2 cells, AUC<450 = reduced viability): 386.921 | HACAT_AUC (HACAT cells; [7]): 476.58 | HACAT_AUC (HACAT cells; area under the dose-response curve, HACAT control cells, AUC<450 = reduced viability): 467.786 | HEK293T_AUC (HEK293T cells; [7]): 472.366 | HEK293T_AUC (HEK293T cells; area under the dose-response curve, HEK293T control cells; AUC<450 = reduced viability): 465.048 | NIH3T3_AUC (NIH-3T3 cells; [7]): 477.589 | NIH3T3_AUC (NIH-3T3 cells; area under the dose-response curve, NIH3T3 control cells, AUC<450 = reduced viability): 482.946 | CRL7250_AUC (CRL-7250 cells; [7]): 416.272 | CRL7250_AUC (CRL-7250 cells; area under the dose-response curve, CRL7250 control cells, AUC<450 = reduced viability): 453.419 | MCC_Avg_AUC ([1]; MIPE library, mean AUC of six MCC cell lines, sheet S2E): 394.964 | Control-VP-MCC ([2]; MIPE library, Control AUC minus VP-MCC AUC (therapeutic window), sheet S2E): 140.718 | VP-MCC_Avg_AUC ([2]; MIPE library, mean AUC of VP-MCC cell lines, sheet S2E): 319.984 | Control-VN-MCC ([3]; MIPE library, Control AUC minus VN-MCC AUC (therapeutic window), sheet S2E): -9.242 | VN-MCC_Avg_AUC ([3]; MIPE library, mean AUC of VN-MCC cell lines, sheet S2E): 469.944 | Control_Avg_AUC ([4]; MIPE library, mean AUC of control cell lines, sheet S2E): 460.702 | Control-MCC ([5]; MIPE library, Control AUC minus MCC AUC (therapeutic window), sheet S2E): 65.7381

COc1cc(CCN)c(OC)cc1Br.Cl
MCC13_AUC (MCC13 cells (VN-MCC)): 402.391 | MCC26_AUC (MCC26 cells (VN-MCC)): 407.575 | UISO_AUC (UISO cells (VN-MCC)): 386.993 | WAGA_AUC (WAGA cells (VP-MCC)): 421.438 and 421.439 | MKL1_AUC (MKL-1 cells (VP-MCC)): 396.289 | MKL2_AUC (MKL-2 cells (VP-MCC)): 390.615 | HACAT_AUC (HACAT cells): 486.493 | HEK293T_AUC (HEK293T cells): 422.838 | NIH3T3_AUC (NIH-3T3 cells): 468.152 | CRL7250_AUC (CRL-7250 cells): 439.439 | MCC_Avg_AUC [1]: 400.883 | Control-VP-MCC [2]: 51.4501 | VP-MCC_Avg_AUC [2]: 402.781 | Control-VN-MCC [3]: 55.2444 | VN-MCC_Avg_AUC [3]: 398.986 | Control_Avg_AUC [4]: 454.231 | Control-MCC [5]: 53.3472

COc1cc(C[C@@H](C)N)c(OC)cc1C.Cl
MCC13_AUC (MCC13 cells (VN-MCC)): 469.394 | MCC26_AUC (MCC26 cells (VN-MCC)): 411.829 | UISO_AUC (UISO cells (VN-MCC)): 418.828 | WAGA_AUC (WAGA cells (VP-MCC)): 120.519 | MKL1_AUC (MKL-1 cells (VP-MCC)): 46.808 | MKL2_AUC (MKL-2 cells (VP-MCC)): 72.1855 | HACAT_AUC (HACAT cells): 438.262 | HEK293T_AUC (HEK293T cells): 304.503 | NIH3T3_AUC (NIH-3T3 cells): 358.481 | CRL7250_AUC (CRL-7250 cells): 239.588 | MCC_Avg_AUC [1]: 256.594 | Control-VP-MCC [2]: 255.371 | VP-MCC_Avg_AUC [2]: 79.8375 | Control-VN-MCC [3]: -98.1417 | VN-MCC_Avg_AUC [3]: 433.35 | Control_Avg_AUC [4]: 335.209 | Control-MCC [5]: 78.6147

C#C[C@]1(OC(C)=O)CC[C@H]2[C@@H]3CCC4=CC(=NO)CC[C@@H]4[C@H]3CC[C@@]21CC (mixture of isomers) [Norgestimate]
MCC13_AUC (MCC13 cells (VN-MCC); NPC library, qHTS dose-response AUC, MCC13): 443.22 | MCC26_AUC (MCC26 cells (VN-MCC); NPC library, qHTS dose-response AUC, MCC26): 396.072 | MCC26_AUC (MCC26 cells (VN-MCC); NPC library; qHTS dose-response AUC, MCC26): 396.073 | UISO_AUC (UISO cells (VN-MCC); NPC library, qHTS dose-response AUC, UISO): 417.397 | WAGA_AUC (WAGA cells (VP-MCC); NPC library, qHTS dose-response AUC, WAGA): 384.002 | MKL1_AUC (MKL-1 cells (VP-MCC); NPC library, qHTS dose-response AUC, MKL1): 398.179 | MKL2_AUC (MKL-2 cells (VP-MCC); NPC library, qHTS dose-response AUC, MKL2): 415.787 | HACAT_AUC (HACAT cells; NPC library, qHTS dose-response AUC, HACAT control): 469.318 | HEK293T_AUC (HEK293T cells; NPC library, qHTS dose-response AUC, HEK293T control): 418.546 | HEK293T_AUC (HEK293T cells; NPC library; qHTS dose-response AUC, HEK293T control): 418.545 | NIH3T3_AUC (NIH-3T3 cells; NPC library, qHTS dose-response AUC, NIH3T3 control): 462.903 | CRL7250_AUC (CRL-7250 cells; NPC library, qHTS dose-response AUC, CRL7250 control): 491.565 | MCC_Avg_AUC ([1]; NPC library, mean AUC of all 6 MCC cell lines): 409.11 | MCC_Avg_AUC ([1]; NPC library, mean AUC of six MCC cell lines): 409.109 | Control-VP-MCC ([2]; Control AUC minus VP-MCC AUC): 61.2604 | VP-MCC_Avg_AUC ([2]; NPC library, mean AUC of VP-MCC cell lines): 399.323 | Control-VP-MCC ([2]; NPC library, therapeutic window: Control avg AUC minus VP-MCC avg AUC): 61.2604 | Control-VN-MCC ([3]; Control AUC minus VN-MCC AUC): 41.6867 | VN-MCC_Avg_AUC ([3]; NPC library, mean AUC of VN-MCC cell lines): 418.896 | Control-VN-MCC ([3]; NPC library, therapeutic window: Control avg AUC minus VN-MCC avg AUC): 41.6867 | Control_Avg_AUC ([4]; NPC library, mean AUC of control cell lines): 460.583 | Control-MCC ([5]; NPC library, therapeutic window: Control avg AUC minus MCC avg AUC): 51.4735
